Laboratory results from PubChem BioAssay (NCI).
Values joined by “and” are separate entries in the source; they are usually repeats but may differ in a detail not shown here. Equal values may be shown once.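 How tested: cells in 96-well plates exposed to compound for 48 hours at five concentrations. GI50 = concentration required for 50% inhibition of growth. TGI: concentration producing complete growth inhibition.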

Legend:
Experiment in all cases: NCI tumour cell line growth inhibition, 48 h
ACHN renal = system: ACHN renal
CCRF-CEM leukemia = system: CCRF-CEM leukemia
HCC-2998 colon = system: HCC-2998 colon
MALME-3M melanoma = system: MALME-3M melanoma
MDA-MB-231 breast = system: MDA-MB-231 breast
NCI-H522 lung = system: NCI-H522 lung
NCI/ADR-RES ovarian = system: NCI/ADR-RES ovarian
SK-OV-3 ovarian = system: SK-OV-3 ovarian
U251 CNS = system: U251 CNS
UACC-257 melanoma = system: UACC-257 melanoma

In the case of `C=CCNC(=O)CN(CC(=O)OC)C1CCCCC1N(CC(=O)OC)CC(=O)OC` (centres undefined), the TGI (ACHN renal) is reported as greater than 100 µM, the TGI (CCRF-CEM leukemia) is reported as greater than 100 µM and the TGI (HCC-2998 colon) is reported as greater than 100 µM. For the same molecule, the TGI (MALME-3M melanoma) was greater than 100 µM, the TGI (MDA-MB-231 breast) was greater than 100 µM and the TGI (NCI-H522 lung) was greater than 100 µM. The TGI (NCI/ADR-RES ovarian) was greater than 100 µM, the TGI (SK-OV-3 ovarian) was greater than 100 µM and the TGI (U251 CNS) was greater than 100 µM. It also gave a TGI (UACC-257 melanoma) greater than 100 µM.
`O=C(O)C12CC3CC(C1)C2C=C3P(=O)(O)O` (centres undefined) was tested, and the TGI (ACHN renal) was greater than 100 µM, the TGI (CCRF-CEM leukemia) was greater than 100 µM and the TGI (HCC-2998 colon) was greater than 100 µM. The TGI (MALME-3M melanoma) was greater than 100 µM, the TGI (NCI-H522 lung) was greater than 100 µM and the TGI (SK-OV-3 ovarian) was greater than 100 µM. For the same molecule, the TGI (U251 CNS) was greater than 100 µM and the TGI (UACC-257 melanoma) was greater than 100 µM.
With `COc1cc(/C=C/C2=C(C#N)C(=O)OC2(C)C)ccc1O` the TGI (ACHN renal) was greater than 100 µM, the TGI (CCRF-CEM leukemia) was 33.1 µM and the TGI (HCC-2998 colon) was greater than 100 µM. For the same molecule, the TGI (MALME-3M melanoma) was greater than 100 µM, the TGI (NCI-H522 lung) was 44.4 µM and the TGI (SK-OV-3 ovarian) was greater than 100 µM. It also gave a TGI (U251 CNS) of 31.7 µM and a TGI (UACC-257 melanoma) greater than 100 µM.
`Nc1n[nH]c(CCCCCCCc2nc(N)n[nH]2)n1` was tested, and the TGI (ACHN renal) was greater than 100 µM, the TGI (CCRF-CEM leukemia) was greater than 100 µM and the TGI (HCC-2998 colon) was greater than 100 µM. It also gave a TGI (MALME-3M melanoma) greater than 100 µM, a TGI (NCI-H522 lung) greater than 100 µM and a TGI (SK-OV-3 ovarian) greater than 100 µM. For the same molecule, the TGI (U251 CNS) was greater than 100 µM and the TGI (UACC-257 melanoma) was greater than 100 µM.
Work on `Cc1c(C2=NN=C(N=Nc3c(O)cccc3O)/C2=C/c2ccccc2)c(=O)n(-c2ccccc2)n1C` yielded a TGI (CCRF-CEM leukemia) greater than 100 µM, a TGI (HCC-2998 colon) greater than 100 µM and a TGI (MALME-3M melanoma) greater than 100 µM. The TGI (NCI-H522 lung) was greater than 100 µM, the TGI (NCI/ADR-RES ovarian) was greater than 100 µM and the TGI (SK-OV-3 ovarian) was greater than 100 µM. For the same molecule, the TGI (U251 CNS) was greater than 100 µM and the TGI (UACC-257 melanoma) was greater than 100 µM.
With `CC(C)=CC(=O)OC1C2C(C)=CC(O)C(O)C2(C)C2C3(O)OCC24C(CC(=O)OC14)C(C)C3O` (centres undefined) the TGI (CCRF-CEM leukemia) was 0.624 µM, the TGI (HCC-2998 colon) was 0.572 µM and the TGI (MALME-3M melanoma) was 0.0844 µM. For the same molecule, the TGI (NCI-H522 lung) was 0.103 µM, the TGI (NCI/ADR-RES ovarian) was 123 µM and the TGI (U251 CNS) was 0.248 µM. The TGI (UACC-257 melanoma) was 2.43 µM.
In the case of `Cc1cn(C2CC(O)C(Cn3nncc3Cn3ncc(=O)[nH]c3=O)O2)c(=O)[nH]c1=O` (centres undefined), the TGI (ACHN renal) is reported as greater than 100 µM, the TGI (CCRF-CEM leukemia) is reported as greater than 100 µM and the TGI (HCC-2998 colon) is reported as greater than 100 µM. For the same molecule, the TGI (MALME-3M melanoma) was greater than 100 µM, the TGI (MDA-MB-231 breast) was greater than 100 µM and the TGI (NCI/ADR-RES ovarian) was greater than 100 µM. For the same molecule, the TGI (SK-OV-3 ovarian) was greater than 100 µM, the TGI (U251 CNS) was greater than 100 µM and the TGI (UACC-257 melanoma) was greater than 100 µM.
`Cc1cccc(CNc2ncnc3[nH]ncc23)c1` showed a TGI (ACHN renal) greater than 100 µM, a TGI (CCRF-CEM leukemia) greater than 100 µM and a TGI (MALME-3M melanoma) greater than 100 µM. It also gave a TGI (MDA-MB-231 breast) greater than 100 µM, a TGI (NCI-H522 lung) greater than 100 µM and a TGI (NCI/ADR-RES ovarian) greater than 100 µM. The TGI (SK-OV-3 ovarian) was greater than 100 µM, the TGI (U251 CNS) was greater than 100 µM and the TGI (UACC-257 melanoma) was greater than 100 µM.
With `O=C1c2ccccc2C(=O)c2c1cc1c(c2[N+](=O)[O-])OCO1` the GI50 (ACHN renal) was 0.248 µM, the TGI (ACHN renal) was 1.3 µM and the GI50 (CCRF-CEM leukemia) was 0.492 µM. For the same molecule, the TGI (CCRF-CEM leukemia) was greater than 100 µM, the GI50 (HCC-2998 colon) was 1.5 µM and the TGI (HCC-2998 colon) was 4 µM. For the same molecule, the GI50 (MALME-3M melanoma) was 2.81 µM, the TGI (MALME-3M melanoma) was 8.9 µM and the GI50 (MDA-MB-231 breast) was 1.45 µM. For the same molecule, the TGI (MDA-MB-231 breast) was 6.79 µM, the GI50 (NCI-H522 lung) was 2.01 µM and the TGI (NCI-H522 lung) was 4.68 µM. It also gave a GI50 (NCI/ADR-RES ovarian) of 1.15 µM, a TGI (NCI/ADR-RES ovarian) of 8.87 µM and a GI50 (U251 CNS) of 2.15 µM. It also gave a TGI (U251 CNS) of 7.72 µM, a GI50 (UACC-257 melanoma) of 11.8 µM and a TGI (UACC-257 melanoma) of 41.5 µM.
For `O=C(O)CCCc1ccccc1`, the GI50 (ACHN renal) was 436 µM and > 1000 µM, the TGI (ACHN renal) was greater than 1000 µM and the GI50 (CCRF-CEM leukemia) was greater than 1000 µM. For the same molecule, the TGI (CCRF-CEM leukemia) was 350 µM and > 1000 µM, the GI50 (HCC-2998 colon) was greater than 1000 µM and the TGI (HCC-2998 colon) was 517 µM and > 1000 µM. The TGI (MALME-3M melanoma) was 121 µM and > 1000 µM, the GI50 (MDA-MB-231 breast) was 338 µM and > 1000 µM and the TGI (MDA-MB-231 breast) was greater than 1000 µM. For the same molecule, the GI50 (NCI-H522 lung) was greater than 1000 µM, the TGI (NCI-H522 lung) was 634 µM and > 1000 µM and the GI50 (NCI/ADR-RES ovarian) was 83.1 µM and 21.2 µM. The TGI (NCI/ADR-RES ovarian) was 343 µM and 47.1 µM, the GI50 (SK-OV-3 ovarian) was 522 µM and > 1000 µM and the TGI (SK-OV-3 ovarian) was greater than 1000 µM. The GI50 (U251 CNS) was 292 µM and > 1000 µM, the TGI (U251 CNS) was greater than 1000 µM and the GI50 (UACC-257 melanoma) was 340 µM and > 1000 µM. For the same molecule, the TGI (UACC-257 melanoma) was greater than 1000 µM.
`CCCCCCCCCCCCC(O)C(=O)O` (centres undefined) showed a TGI (ACHN renal) greater than 100 µM, a TGI (CCRF-CEM leukemia) greater than 100 µM and a TGI (HCC-2998 colon) greater than 100 µM. For the same molecule, the TGI (MALME-3M melanoma) was greater than 100 µM, the TGI (MDA-MB-231 breast) was greater than 100 µM and the TGI (NCI-H522 lung) was greater than 100 µM. The TGI (NCI/ADR-RES ovarian) was greater than 100 µM, the TGI (SK-OV-3 ovarian) was greater than 100 µM and the TGI (U251 CNS) was greater than 100 µM. The TGI (UACC-257 melanoma) was greater than 100 µM.
